{
  "source": "paper PMC2903208",
  "about": "(Organic letters, 2010)",
  "biological_target": "T1, mCD1d (Mus musculus, UniProt P11609)",
  "T1 sequence (P11609 22-305 limits assumed)": "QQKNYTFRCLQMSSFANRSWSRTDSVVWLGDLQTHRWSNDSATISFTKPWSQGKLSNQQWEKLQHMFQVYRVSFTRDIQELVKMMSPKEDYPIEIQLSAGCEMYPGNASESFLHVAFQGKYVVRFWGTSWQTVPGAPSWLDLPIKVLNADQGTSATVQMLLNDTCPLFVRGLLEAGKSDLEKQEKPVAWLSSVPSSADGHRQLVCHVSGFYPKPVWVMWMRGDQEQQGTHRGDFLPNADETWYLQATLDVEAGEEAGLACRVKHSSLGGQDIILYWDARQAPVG",
  "T1 sequence (P01887 21-119 partner)": "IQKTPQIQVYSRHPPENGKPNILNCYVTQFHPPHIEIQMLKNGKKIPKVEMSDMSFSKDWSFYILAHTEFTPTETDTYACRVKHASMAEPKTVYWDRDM",
  "test": "SPR of soluble TCR binding to glycolipid-loaded mCD1d",
  "data": [
    {"smiles": "CCCCCCCCCCCCCCCCCCCCCCCCCC(=O)N[C@@H](CO[C@H]1O[C@H](CO)[C@H](O)[C@H](O)[C@H]1O)[C@H](O)[C@H](O)CCCCCCCCCCCCCC", "note": "[compound 1, α-GalCer]", "values": [
      {"measurement": "Kd", "result": 12.8, "unit": "nM"}
    ]}
  ]
}
